Test results published in patent publication US9708336B2, “Metallo-beta-lactamase inhibitors” (priority 2014, dated 2017).
Where two headings read alike, the source gives them in different places.

Legend:
NDM-1 = NDM-1 (Klebsiella pneumoniae, UniProt C7C422); test: biochemical; assay type: biochemical; details: read-out: NDM-1 IC50
IMP-1 = IMP-1 (Serratia marcescens, UniProt P52699); test: biochemical; assay type: biochemical; details: read-out: IMP-1 IC50
VIM-1 = VIM-1 (Pseudomonas aeruginosa (strain ATCC 15692 / DSM 22644 / CIP 104116 / JCM 14847 / LMG 12228 / 1C / PRS 101 / PAO1), UniProt A0A0F7KYQ8); test: Enzyme activity: determination of IC50, fluorescence assay with CCF2-FA substrate (VIM-1); assay type: biochemical
[1] = tested on: Escherichia coli expressing NDM-1 (CLB30016); test: Antibiotic potentiation activity: synergistic concentration (MITC95) with imipenem, OD600 growth; assay type: cell-based; details: for Escherichia coli expressing NDM-1 (CLB 30016) MITC95: concentration giving 95% inhibition of bacterial growth
Experimental: (§1) Antibiotic Potentiation Activity: Determination of Synergistic Concentration
(§2) The bacterial strains tested included the clinical strains Escherichia coli expressing NDM-1 (CLB30005, CLB30016), Serratia marcescens expressing IMP-1 (CL5741), and Klebsiella pneumoniae expressing VIM-1 (IHMA599644) Inhibitor activity was measured in the presence and absence of imipenem in a 384-well microplate.
(§3) The clinical strains CLB30016, CL5741 and IHMA599644 were grown on trypticase soy agar containing 5% sheep's blood. The clinical strain CLB30005 was grown on Mueller Hinton broth agar containing 8 ug/ml imipenem. The bacteria on agar plates were incubated at 35° C. with humidity overnight. The following day, individual colonies from each clinical strain were picked and resuspended in 5 ml saline to attain an OD600 of 0.14, 0.11, 0.15 and 0.13, for CLB30005, CLB30016, CL5741 and IHMA599644, respectively. These were further diluted 1:100 into 1.1×CAMHB and used to inoculate the test wells as described below.
(§4) Imipenem in 10 mM 3-(N-morpholino)propanesulfonic acid (MOPS, pH 7) was stored in single use aliquots at −80° C. […] On the day of the assay, 4 μl of antibiotic was added to 45 ul of bacteria followed by 1 μl of test compound and mixed by pipetting and with an orbital shaker. The concentration of antibiotic used in the assay was 4 μg/ml, or optionally 1 μg/ml. Microplates were covered and incubated at 35° C. for 22 hours to 24 hours. At the end of the incubation, absorbance was determined using a spectrophotometer.

[2] = tested on: Klebsiella pneumoniae expressing VIM-1 (IHMA599644); test: as above; assay type: cell-based; details: for Klebsiella pneumoniae expressing VIM-1 (IHMA 599644) MITC95: concentration giving 95% inhibition of bacterial growth
Experimental: as §1, §2, §3, §4

[3] = tested on: Serratia marcescens expressing IMP-1 (CL5741); test: as above; assay type: cell-based; details: for Serratia marcescens expressing IMP-1 (CL5741) MITC95: concentration giving 95% inhibition of bacterial growth
Experimental: as §1, §2, §3, §4

[4] = NDM-1 enzyme, CCF2-FA substrate
[5] = IMP-1 enzyme, CCF2-FA substrate
[6] = VIM-1 enzyme, CCF2-FA substrate, read-out: VIM-1 IC50
[7] = (CLB30016, NDM-1), 95% growth inhibition
[8] = Klebsiella pneumoniae IHMA599644 (VIM-1), 95% growth inhibition
[9] = Serratia marcescens CL5741 (IMP-1), 95% growth inhibition
[10] = VIM-1 IC50, VIM-1 enzyme, CCF2-FA substrate
[11] = NDM-1 enzyme, CCF2-FA fluorescence assay
[12] = IMP-1 enzyme, CCF2-FA fluorescence assay
[13] = VIM-1 enzyme, CCF2-FA fluorescence assay, read-out: VIM-1 IC50
[14] = Escherichia coli expressing NDM-1 (CLB30016), 95% growth inhibition
[15] = Klebsiella pneumoniae expressing VIM-1 (IHMA599644), 95% growth inhibition
[16] = Serratia marcescens expressing IMP-1 (CL5741), 95% growth inhibition
[17] = fluorescence assay with CCF2-FA substrate
[18] = fluorescence assay with CCF2-FA substrate, read-out: VIM-1 IC50

Chain of IMP-1 (P52699 whole entry, looked up): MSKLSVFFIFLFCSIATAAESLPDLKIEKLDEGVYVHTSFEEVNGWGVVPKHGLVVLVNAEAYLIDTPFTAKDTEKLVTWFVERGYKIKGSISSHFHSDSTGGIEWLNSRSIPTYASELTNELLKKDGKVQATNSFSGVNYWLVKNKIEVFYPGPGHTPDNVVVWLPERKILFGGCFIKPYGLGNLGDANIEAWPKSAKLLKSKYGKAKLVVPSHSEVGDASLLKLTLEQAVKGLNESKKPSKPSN
Chain of NDM-1 (C7C422 whole entry, looked up, species assumed): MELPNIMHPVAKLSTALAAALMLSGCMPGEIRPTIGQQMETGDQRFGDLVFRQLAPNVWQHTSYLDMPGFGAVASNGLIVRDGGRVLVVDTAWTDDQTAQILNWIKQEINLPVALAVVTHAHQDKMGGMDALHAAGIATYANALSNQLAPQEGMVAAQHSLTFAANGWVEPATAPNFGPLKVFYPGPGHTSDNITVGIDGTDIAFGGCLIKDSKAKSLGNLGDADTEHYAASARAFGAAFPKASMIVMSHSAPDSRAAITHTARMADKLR

Structure (SMILES) | IC50 (NDM-1; [4]) [nM] | IC50 (IMP-1; [5]) [nM] | IC50 (VIM-1; [6]) [nM] | Escherichia coli MITC95 [1, 7] [µM] | Klebsiella pneumoniae MITC95 [2, 8] [µM] | Serratia marcescens MITC95 [3, 9] [µM] | further results
CC1(O)CN(c2ccc(-c3cccc(S(N)(=O)=O)c3-c3nnn[nH]3)cn2)C1 [Example 635, 3-[6-(3-hydroxy-3-methyl-azetidin-1-yl)-3-pyridyl]-2-(1H-tetrazol-5-yl)benzenesulfonamide] | 4.92 | 91.5 | 258 | 2.148 | 112.5 | 7.813 | –
NC1CCC(N[C@H]2CC[C@H](c3ccc(C(F)(F)F)c(S(N)(=O)=O)c3-c3nnn[nH]3)CC2)C1 (stereo partly drawn) [Example 703, 3-{4-[(3-aminocyclopentyl)amino]cyclohexyl}-2-(1H-tetrazol-5-yl)-6-(trifluoromethyl)benzene sulfonamide] | 6.14 | 38 | – | 0.3906 | 12.5 | 3.125 | IC50 (VIM-1; [10]): 8.38 nM
Nc1cccn2c(-c3cccc(S(N)(=O)=O)c3-c3nnn[nH]3)cnc12 [Example 418, 3-(8-aminoimidazo[1,2-a]pyridin-3-yl)-2-(1H-tetrazol-5-yl)benzenesulfonamide] | – | – | – | – | – | – | IC50 (NDM-1; [11]): 1.18 nM; IC50 (IMP-1; [12]): 118 nM; IC50 (VIM-1; [13]): 13 nM; Escherichia coli MITC95 [1, 14]: 0.3906 µM; Klebsiella pneumoniae MITC95 [2, 15]: 6.25 µM; Serratia marcescens MITC95 [3, 16]: 6.25 µM
NS(=O)(=O)c1c(C2CC2)ccc(-c2cccc3ncccc23)c1-c1nn[nH]n1 [Example 529, 6-Cyclopropyl-3-(quinolin-5-yl)-2-(2H-tetrazol-5-yl)benzenesulfonamide] | 2.2 | 6.3 | 0.991 | 3.906 | 9.375 | 0.7813 | –
NC1(c2ccc(-c3ccc(C(F)(F)F)c(S(N)(=O)=O)c3-c3nnn[nH]3)cc2)CCOC1 (stereo not drawn) [Example 730, 4′-(3-aminotetrahydrofuran-3-yl)-2-(1H-tetrazol-5-yl)-4-(trifluoromethyl)biphenyl-3-sulfonamide] | 2.8 | 3.57 | 6 | 3.125 | 50 | 3.125 | –
NC1CCC(Cc2ccc(-c3ccnc4ccccc34)c(-c3nn[nH]n3)c2S(N)(=O)=O)CC1 (stereo not drawn) [Example 451, 6-(((1s,4s)-4-aminocyclohexyl)methyl)-3-(quinolin-4-yl)-2-(2H-tetrazol-5-yl)benzenesulfonamide] | – | – | – | – | – | – | IC50 (NDM-1; [11]): 0.977 nM; IC50 (IMP-1; [12]): 47.1 nM; IC50 (VIM-1; [13]): 0.476 nM; Escherichia coli MITC95 [1, 14]: 1.563 µM; Klebsiella pneumoniae MITC95 [2, 15]: 3.125 µM; Serratia marcescens MITC95 [3, 16]: 3.125 µM
Nc1cncc(-c2cccc(S(N)(=O)=O)c2-c2nnn[nH]2)n1 [Example 137, 3-(6-aminopyrazin-2-yl)-2-(1H-tetrazol-5-yl)benzenesulfonamide] | – | – | – | – | – | – | IC50 (NDM-1; [17]): 30.7 nM; IC50 (IMP-1; [17]): 2530 nM; IC50 (VIM-1; [18]): 561 nM; Escherichia coli expressing NDM-1 (CLB 30016) MITC95 [1]: 1.172 µM; Klebsiella pneumoniae expressing VIM-1 (IHMA 599644) MITC95 [2]: 25 µM; Serratia marcescens expressing IMP-1 (CL5741) MITC95 [3]: 25 µM
NS(=O)(=O)c1cccc(-c2ccc(N3CC(CN4CCCC4)C3)nc2)c1-c1nnn[nH]1 [Example 630, 3-[6-[3-(pyrrolidin-1-ylmethyl)azetidin-1-yl]-3-pyridyl]-2-(1H-tetrazol-5-yl)benzenesulfonamide] | 32.3 | 388 | 635 | 1.172 | 50 | 12.5 | –
CN(C)C1CCC(NCc2ccc(-c3cccc(S(N)(=O)=O)c3-c3nnn[nH]3)cc2)CC1 (stereo not drawn) [Example 355, 4′-({[4-(dimethylamino)cyclohexyl]amino}methyl)-2-(1H-tetrazol-5-yl)biphenyl-3-sulfonamide] | – | – | – | – | – | – | IC50 (NDM-1; [11]): 14 nM; IC50 (IMP-1; [12]): 467 nM; IC50 (VIM-1; [13]): 869 nM; Escherichia coli MITC95 [1, 14]: 1.563 µM; Klebsiella pneumoniae MITC95 [2, 15]: 150 µM; Serratia marcescens MITC95 [3, 16]: 4.688 µM
NS(=O)(=O)c1c(C(F)(F)F)ccc(-c2cccc3c2OCCN3)c1-c1nnn[nH]1 [Example 724, 3-(3,4-dihydro-2H-1,4-benzoxazin-8-yl)-2-(1H-tetrazol-5-yl)-6-(trifluoromethyl)benzenesulfon-amide] | 1.15 | 2.44 | 0.862 | 6.25 | 12.5 | 6.25 | –
N=CNCc1ccc(-c2ccc(Br)c(S(N)(=O)=O)c2-c2nn[nH]n2)cc1 [Example 425, N-((4′-bromo-3′-sulfamoyl-2′-(2H-tetrazol-5-yl)-[1,1′-biphenyl]-4-yl)methyl)formimidamide] | – | – | – | – | – | – | IC50 (NDM-1; [11]): 13.5 nM; IC50 (IMP-1; [12]): 15.9 nM; IC50 (VIM-1; VIM-1 IC50, VIM-1 enzyme, CCF2-FA fluorescence assay): 4.07 nM; Escherichia coli MITC95 [1, 14]: 0.3906 µM; Klebsiella pneumoniae MITC95 [2, 15]: 1.563 µM; Serratia marcescens MITC95 [3, 16]: 0.5859 µM
NC1CCCc2ccc(-c3ccc(C(F)(F)F)c(S(N)(=O)=O)c3-c3nnn[nH]3)cc21 (stereo not drawn) [Example 731, 3-(8-amino-5,6,7,8-tetrahydronaphthalen-2-yl)-2-(1H-tetrazol-5-yl)-6-(trifluoromethyl)benzenesulfon-amide] | 61.3 | 117 | – | 25 | 50 | 50 | IC50 (VIM-1; [10]): 22.1 nM
Nc1nc2cc(-c3ccc(CC4CNC4)c(S(N)(=O)=O)c3-c3nn[nH]n3)ccc2[nH]1 [Example 611, 3-(2-amino-3H-benzo[d]imidazol-5-yl)-6-(azetidin-3-ylmethyl)-2-(2H-tetrazol-5-yl)benzenesulfonamide] | 17.7 | 344 | 20.1 | 0.3906 | 1.563 | 12.5 | –
NS(=O)(=O)c1cccc(-c2cnc3nc(C(F)(F)F)ccn23)c1-c1nnn[nH]1 [Example 650, 2-(1H-tetrazol-5-yl)-3-[7-(trifluoromethyl)imidazo[1,2-a]pyrimidin-3-yl]benzenesulfonamide] | 22.1 | 1260 | 46.8 | 1.563 | 50 | 100 | –
NCCCN1CC(c2ccc(-c3ccc(C(F)(F)F)c(S(N)(=O)=O)c3-c3nnn[nH]3)cc2)C1 [Example 816, 4′-[1-(3-aminopropyl)azetidin-3-yl]-2-(1H-tetrazol-5-yl)-4-(trifluoromethyl)biphenyl-3-sulfonamide] | – | – | – | – | – | – | IC50 (NDM-1; [17]): 6.62 nM; IC50 (IMP-1; [17]): 16.3 nM; IC50 (VIM-1; [18]): 13.5 nM; Escherichia coli MITC95 ([1]; CLB30016 (NDM-1), 95% inhibition of bacterial growth): 1.563 µM; Klebsiella pneumoniae MITC95 ([2]; IHMA599644 (VIM-1), 95% inhibition of bacterial growth): 12.5 µM; Serratia marcescens MITC95 ([3]; CL5741 (IMP-1), 95% inhibition of bacterial growth): 6.25 µM
NS(=O)(=O)c1nccc(N2CCC(n3ccnc3)CC2)c1-c1nnn[nH]1 [Example 228, 4-[4-(1H-imidazol-1-yl)piperidin-1-yl]-3-(1H-tetrazol-5-yl)pyridine-2-sulfonamide] | – | – | – | – | – | – | IC50 (NDM-1; [17]): 372 nM; IC50 (IMP-1; [17]): 3210 nM; IC50 (VIM-1; [18]): 343 nM; Escherichia coli expressing NDM-1 (CLB 30016) MITC95 [1]: 1.563 µM; Klebsiella pneumoniae expressing VIM-1 (IHMA 599644) MITC95 [2]: 37.5 µM; Serratia marcescens expressing IMP-1 (CL5741) MITC95 [3]: 37.5 µM
